Assays:
[1] = Pharmacokinetic evaluation using testosterone levels after needle-free (Zetajet) subcutaneous self-injection; assay type: in vivo, human
Excerpt: The goal of the study is to determine if a needle-free injector can consistently deliver frequent administrations (daily or three times weekly) of testosterone in a safe and effective manner. To answer this specific question, the study was designed to determine the efficacy (defined as testosterone serum levels, wetness, pain, and clinical questionnaire) of the combined product (cross labeled) of needle-free injection of testosterone cypionate hypogonadal men. This includes both objective (testosterone free and total levels) and subjective (pain and clinical questionnaire).
On Jan. 26, 2013, IRBS approved a modification of the CP-445 study. Due to a clear efficacy and patient acceptance at day 30, an extension of the study was requested to follow the fourteen subject's testosterone levels at a less frequent dosing interval and increased dosage. There was no deviation to the protocol as originally designed for day 0-30. Nor was there any deviation to the conduct of the study to day 120. This modification allowed following subjects out to day 120 on a Monday, Wednesday, Friday dosing of 50 mg of testosterone cypionate. Only T levels at day 60 and 120 were assessed.

hypogonadal men [2] = assay: Adverse events, injection site reactions and wetness after needle-free injection; assay type: in vivo, human
Excerpt: Of the 14 patients 9 recorded symptoms of redness, 5 symptoms of bruising and one an induration. None of these reactions required medical follow up or dissuaded any patient from discontinuing treatment. See section on Preference for additional data on patient preference and comparison of needle-Free injection methods to needle and syringe. FIG. 5 depicts post injection site reactions as a percentage of the total number of injections for 14 patients over a 30 day period.
Wetness at the injection site is believed to be attributed to moisture on the tip of the syringe prior to the injection per recommended technique. Wetness with visible moisture flow at the site of the injection is thought to result from improper injection technique and a lack of fluid pressure in the nozzle because of the technique. Results for wetness varied across all patients. FIG. 7 depicts cumulative wetness results by category as a percentage of total injections.

hypogonadal men [3] = assay: Visual/verbal analog pain scale after needle-free injection
Description: Each subject was given thorough instruction on performing self needle-free injections with the Zetaj et. […] Pharmacokinetic evaluation using testosterone levels were obtained at specified intervals. Secondary endpoints, both objective and subjective, included E2 levels, pain score diaries, and AMS scores obtained before and after one month of treatment. A dose confirmation strategy was conducted to achieve likelihood of valid dose.
From day 60-90, all subjects were verified to have cottonseed vehicle in the commercially available formulation via Watson Pharmaceutical.

hypogonadal men [4] = assay: Aging Male Score (AMS) questionnaire before and after treatment; assay type: in vivo, human
Excerpt: AMS scoring was based on a rating of symptom severity ranging from no symptoms with the lowest score of 1 to severe symptoms with a […].

C[C@]12CC[C@H]3[C@@H](CCC4=CC(=O)CC[C@@]43C)[C@@H]1CC[C@@H]2OC(=O)CCC1CCCC1 [testosterone cypionate]
course of free and total testosterone levels ([1]; 25 mg daily Zetajet injection, 6 hours to day 30): consistently rose from 6 hours to day 30 | average testosterone level of the men with supraphysiologic levels (above 975.0 ng/dl) ([1]; 25 mg daily Zetajet injection, day 30, four men): 1203 ng/dl | increase of free testosterone levels ([1]; 25 mg daily, from 8.76 ng/dl to 37.5 ng/dl): over four fold increase | average total testosterone levels of QODWO dosing lower than daily injections ([1]; QODWO 50 mg vs daily 25 mg): 35% | increase in testosterone levels ([1]; QODWO dosing at 50 mg): 3 fold | supraphysiologic levels of testosterone ([1]; QODWO dosing at 50 mg): no men had supraphysiologic levels | men with normal testosterone levels ([1]; QODWO dosing at 50 mg, men who completed the 120 day study extension): 11 out of 11 | average free testosterone level ([1]; after 25 mg daily injection, baseline average 8.76 ng/dl): 37.5 ng/dL | men with normal testosterone levels (primary endpoint) ([1]; at two weeks, 25 mg daily): 13/14 | increase in average testosterone levels from baseline ([1]; daily dosing regimen of 25 mg a day): over four fold increase | average testosterone level after correction to the normal range ([1]; three formerly supraphysiologic subjects continued on QODWO regimen (50 mg), extended study): 519 ng/dL | allergic response or major bruising (hypogonadal men [2]; 100 mg/ml and 200 mg/ml commercially available formulations): No allergic response or major bruising | share of injections resulting in minor redness and bruising (hypogonadal men [2]; 14 patients over 30 days): a quarter | severe adverse events (hypogonadal men [2]; entire study (to day 120)): No severe adverse events | tolerability / safety in words (hypogonadal men [2]; needle-free injection in hypogonadal men): well tolerated | patients who recorded an induration (hypogonadal men [2]; of the 14 patients, 30 days): one | patients who recorded symptoms of bruising (hypogonadal men [2]; of the 14 patients, 30 days): 5 | patients who recorded symptoms of redness (hypogonadal men [2]; of the 14 patients, 30 days): 9 | verbal analog pain score, average (hypogonadal men [3]; five minutes after injection, scale 0-4, 25 mg daily needle-free injection): 0.54 | visual analog pain score, average (hypogonadal men [3]; five minutes after injection, scale 0-10, 25 mg daily needle-free injection in the abdomen): 0.4 | verbal analog pain score (hypogonadal men [3]; thirty minutes after injection, scale 0-4, 4 most painful): 0.26 | visual analog pain score (hypogonadal men [3]; thirty minutes after injection, scale 0-10, 10 most painful): 0.14 | average AMS score after treatment (hypogonadal men [4]; after one month of 25 mg daily, baseline average 50 points, thirteen of fourteen men): 25 points | average reduction in bothersome hypogonadal symptoms (AMS score) (hypogonadal men [4]; after one month of treatment vs before): 50%

— patent US20140171918A1, “USE OF A NOVEL SU[…]-FREE […] TO DELIVER TE[…] H[…]” (Bioject, Inc., priority 2012, published 2014)
